In ChEMBL document CHEMBL3507680, “University of Dundee, Gates Library screen for HepG2 cell viability” one finds cytotoxicity data, which are given here for 98 compounds.

The structures appear in SMILES notation.

This data set is described as follows: Human HepG2 cell viability assay in 384 well format. The format is toxicity, cell-based. Also on record: dose 125 nL, time 70.5 hour; cytotoxicity at 70.5 h: concentration not given beside the values. The conditions noted are these: HepG2 cells, read-out: Inhibition.
With `CCOc1cc(NC(=O)N2CCC3(CCOCC3)C2)ccc1C`, the cytotoxicity at 70.5 h was -7.4%.
The value for `CN1CCCN(S(=O)(=O)c2cccc(C(=O)N3CCCCCC3)c2)CC1` was -7.86%.
With `CCN(C)c1ncnc2c1CCN(Cc1nccs1)CC2` the figure was 6.96%; with `COCc1ccccc1CNc1cc(N2CCCC2CO)ncn1` (stereo not drawn), -18.2%.
The value for `Cn1cc([C@@H]2CN(S(=O)(=O)c3cccs3)C[C@H]2N)c2ccncc21` was 4.81%; that for `Cc1cnc(CN(C)C2CCN(CCCc3cnn(C)c3)C2)o1` (stereo not drawn) was -8%.
As for `CCOc1ncccc1NC(=O)N1CCCN(C(=O)OC)CC1`, the cytotoxicity at 70.5 h is -0.675%.
With `Cc1nc(NCCc2ccc(Cl)cc2)cc(C(=O)N2CCCCC2)n1` the figure was 13.8%; with `O=C(Nc1nnc(N2CCCCC2)[nH]1)c1cccs1`, -0.727%; with `O=C(CN1CCCC1Cn1cncn1)Nc1nccs1` (stereo not drawn), -7%.
With `CN(Cc1cc2cc(F)ccc2[nH]1)c1cc(C2CCCNC2)ncn1` (stereo not drawn) the figure was -0.169%; with `Cc1cccc(CN2CCc3nnc(Cn4cccc4)n3CC2)n1`, -5.46%; with `O=C(c1ccco1)N1CCOCC2(C1)CN(c1cccnc1)C(=O)CO2` (stereo not drawn), -3.1%.
The value for `Cc1cnn(CC(C)NCC(=O)NCCOc2ccccc2)c1` (stereo not drawn) was 11.7%; that for `Cc1cccc(CN(Cc2nc3c(cnn3C)c(=O)[nH]2)C2CC2)c1` was -6.88%; that for `CN(Cc1ccc(-n2cccn2)cc1)CC1CCCN1c1cccnn1` (stereo not drawn) was -10.7%.
As to `N#Cc1cccnc1NCCNC(=O)NCCSC(F)(F)F`, the cytotoxicity at 70.5 h was -10.1%.
The value for `Cc1nc(CN2Cc3nccn3CC(CN3CCOCC3)C2)cs1` (stereo not drawn) was -2.85%; that for `CC(=O)N1CCCN(C(=O)c2csc(-c3ccc(C)cc3C)n2)CC1` was -4.64%; that for `Cc1cccc(C(CNC(=O)NCc2cc[nH]n2)N2CCOCC2)c1` (stereo not drawn) was -14.8%.
The value for `O=C(NCCOC1CCCCC1)c1ccc(-c2ccco2)[nH]c1=O` was 15.1%.
The value for `Cc1nc(C(C)(C)NCc2ncc(C3CC3)o2)sc1C` was 2.05%; that for `Cc1ncsc1C(=O)NCCNc1cnccn1` was -3.47%; that for `Cc1noc(-c2cnc(NC(C)C)nc2-c2ccco2)c1C` was -13.3%.
Regarding `CC(C)NC(=O)N1CCC2(CC1)[C@@H]1CN(C(=O)N(C)C)C[C@@H]1C(=O)N2C`, the cytotoxicity at 70.5 h was -7.71%.
For the compound `Cc1nc(C2CCCN2C(=O)Cc2cccc(F)c2)nc(O)c1C` (stereo not drawn), the cytotoxicity at 70.5 h stood at 21.4%.
The value for `COc1cc(C(=O)Nc2c(C)noc2C)ccc1C` was 1.7%.
With `Cn1cc(CN2CCCC23CCN(C(=O)c2ccsc2)CC3)cn1` the figure was -5.87%.
With `Cc1ccccc1N1CC2(CCN(S(=O)(=O)C3CC3)C2)CC1=O` (stereo not drawn) the figure was -14.8%; with `CC(C)N(CCS(C)(=O)=O)Cc1csc(-c2ccccc2F)n1`, -13.1%.
Turning to `CC(=O)Nc1ncc(S(=O)(=O)Nc2cccc(F)c2)s1`, the cytotoxicity at 70.5 h is -8.84%.
The value for `Cc1nc(CN2CCN(Cc3cc4n(n3)CCNC4)CC2)cs1` was 22.5%; that for `COCC(=O)N1CCN(Cc2coc(-c3cccc(F)c3)n2)CC1` was -6.62%.
With `O=C(c1ccoc1)N1CC[C@@H]2[C@H]1CCC(=O)N2c1ccccc1` the figure was -7.05%.
With `Cn1ccnc1C1CCN(CCN2CCOCC2)CC1` the figure was -8.74%; with `O=C(C1=CCCC1)N1C[C@@H]2COC[C@]2(COCC2CC2)C1`, -6.62%; with `COc1ncccc1CN1C[C@@H]2COC[C@]2(CNS(C)(=O)=O)C1`, -13.2%.
For `O=C(C1CCS(=O)(=O)C1)N1CCC(=Cc2cccc(F)c2)CC1` (stereo not drawn), the cytotoxicity at 70.5 h was -9.56%.
On to `O=C(NC[C@H]1CCCC[C@H]1O)c1cccc2[nH]c(-c3cccs3)nc12`, for which the cytotoxicity at 70.5 h is -5.24%.
Regarding `CC(CS(C)(=O)=O)NCc1cc(Cl)ccc1F` (stereo not drawn), the cytotoxicity at 70.5 h was 19.9%.
With `Cc1cc(CN2CCN(C(=O)c3sccc3C3CC3)CC2)on1` the figure was -13.6%; with `CNS(=O)(=O)CC(=O)N(Cc1c(F)cccc1Cl)C1CC1`, -7.68%; with `N#Cc1ccc(N2CCN(c3ncccn3)CC2)c(C(F)(F)F)c1`, 8.58%.
The value for `CCc1nc(C2CCCN2Cc2nc3ccccc3o2)no1` (stereo not drawn) was -17.9%.
The value for `Cc1cc(CN2C[C@H]3CC[C@@H]2CN(Cc2[nH]cnc2C)C3)on1` was -6.39%.
For `NC(=O)c1ccnc(N2CCN(Cc3ccc(F)cc3Cl)CC2)c1`, the cytotoxicity at 70.5 h was -15.2%.
The value for `CS(=O)(=O)c1ccc2c(c1)N(C(=O)c1cccc(F)c1)CCC2` was -4.57%; that for `O=C(CNC(=O)c1c[nH]c2ccccc12)NCCCn1ccnc1` was -5.85%.
On to `O=C(Nc1ccc(OC(F)F)cc1)N1CCC(c2nnc[nH]2)CC1`, for which the cytotoxicity at 70.5 h was -2.12%.
The value for `CN(C)c1cccc(C(=O)N2CCn3c(nnc3C3CC3)C2)c1` was 19.2%; that for `O=C(c1n[nH]c2c1CCC2)N1CCCC1c1nc(-c2ccccc2)no1` (stereo not drawn) was -1.83%; that for `CNC(=O)c1ccc(C(=O)N2CCCC(n3nc(C)cc3C)C2)cn1` (stereo not drawn) was -12.8%.
The value for `CC(Oc1ccc(F)cc1)C(=O)N(CC(N)=O)C1CCCC1` (stereo not drawn) was 0.347%.
The value for `O=C(c1cccnc1)N1CCc2c(nc(N3CCCC3)[nH]c2=O)C1` was -4.95%; that for `Cc1ccc(Cl)c2ccc(NC(CO)CO)nc12` was 0.998%; that for `Cc1ccc(CN2CC[C@@H]3O[C@@H](C(=O)N4CCN(C)CC4)C[C@@H]32)cc1` was -1.43%.
As for `CCOc1ccccc1C(=O)NC(CC(=O)O)c1cccs1` (stereo not drawn), the cytotoxicity at 70.5 h was -6.28%.
The value for `COCC1CN(C(=O)c2cnc(C)cn2)Cc2ncnn2C1` (stereo not drawn) was 19%; that for `CCC(=O)Nc1nnc(CCOc2cccc(OC)c2)s1` was 6.47%.
With `CC(C(=O)Nc1ccc(N2CCOCC2)nc1)n1cncn1` (stereo not drawn) the figure was 23.7%; with `CO[C@@H]1CCC[C@@H](N(C)C(=O)c2cc(F)ccc2F)[C@H]1O`, -3.32%.
The value for `CC(C)(C)OC(=O)NCC(=O)NCc1ccc(Cl)s1` was -0.913%; that for `CS(=O)(=O)NCC1CCCN(c2ccc(C#N)cn2)C1` (stereo not drawn) was -8.07%.
On to `Nc1ncnc2c1ncn2[C@H]1CCN(Cc2ccsc2)CC[C@@H]1O`, for which the cytotoxicity at 70.5 h is -6.05%.
Turning to `O=C(Cc1ccon1)N1CCN(c2ccc(F)cc2Cl)CC1`, the cytotoxicity at 70.5 h was -6.01%.
With `CN(C)[C@@H]1C[C@@H](CO)N(C(=O)Nc2cccc(F)c2F)C1` the figure was 19.1%; with `CN(CC(=O)NC(C)(C)C)C(=O)C1CC(c2cccc(F)c2)=NO1` (stereo not drawn), 4.91%; with `Cc1csc(CNc2cnn(CC(C)C)c2)n1`, 3.86%.
With `O=C(O)c1cccc(CC2CCN(c3cnccn3)CC2)c1` the figure was -2.92%; with `COc1ccc(C2(NCc3noc(C4CC4)n3)CCOCC2)cc1`, -12.1%; with `COc1ccc(C2CCCN2C(=O)NCCCn2ccnc2)cc1` (stereo not drawn), 16.1%.
With `C/C=C(\C)CN1C[C@H](NC(=O)CN2CCCC2=O)[C@@H](c2ccc(C)o2)C1` the figure was 9.35%; with `O=C(c1cc[nH]n1)N1CCOCC2(C1)CN(c1ccccc1)C(=O)CO2` (stereo not drawn), -12.1%.
Regarding `CCOC(=O)c1ccc(NC(=O)Cn2cc(I)cn2)cc1`, the cytotoxicity at 70.5 h is -4.39%.
With `COC(=O)C1(C)CCN(C(=O)NCCc2c(C)[nH]c3ccccc23)C1` (stereo not drawn) the figure was -3.86%.
The value for `CN(Cc1ncnn1C)C(=O)Nc1ccc(OC(F)F)cc1` was -8.26%; that for `NC(=O)Nc1cccc(C(=O)N(Cc2ccncc2)C2CC2)c1` was -10.2%.
The value for `CS(=O)(=O)NCc1cn2c(n1)CN(Cc1cccnc1)CC2` was 9.87%; that for `CN(C)c1ncc(NC(=O)c2ccccc2C(F)(F)F)cn1` was -4.64%.
Consider `CC(C)c1nnc(CN2CCN(CC(O)c3ccccc3)CC2)o1` (stereo not drawn), for which the cytotoxicity at 70.5 h is -0.811%.
For `O=C(c1ccoc1)N1CC[C@@H](N2CCOCC2)[C@@H]1Cc1ccccc1`, the cytotoxicity at 70.5 h was -10.9%.
With `O=C(NCCN1CCOCC1)c1ccn(-c2ccccc2F)n1` the figure was -2.56%.
With `CCn1ccnc1CN1CCN(c2cc(C)nc(C3CCCN3)c2)CC1` (stereo not drawn) the figure was -5.1%.
The value for `CNC(=O)C1CCCN(C(=O)c2ccccc2-n2cc(CN)cn2)C1` (stereo not drawn) was 2.43%; that for `Cc1nnc(SCc2cccc(F)c2)n1CC(N)=O` was -125%; that for `Cc1cc(C)c(C(=O)NC2CCCc3nc(N(C)C)ncc32)cc1C` (stereo not drawn) was 23.6%.
As to `Cc1cccc(CNC(=O)CC2CCN(S(C)(=O)=O)CC2)n1`, the cytotoxicity at 70.5 h was -4.65%.
With `Cc1ccc(NC2CCN(C(=O)c3ccc(F)cc3Cl)CC2)nn1`, the cytotoxicity at 70.5 h was -3.69%.
The value for `COCC1CN(C(=O)Nc2cc(Cl)ccc2F)CCO1` (stereo not drawn) was -8.58%; that for `CCN1CC2(CC1=O)CN(Cc1ccccn1)CCN(C(C)=O)C2` (stereo not drawn) was -10.2%.
With `Cc1cccc(S(=O)(=O)NC2CCN(CC(F)(F)F)C2)c1` (stereo not drawn) the figure was -15.5%; with `CCn1ccc(C(=O)N(C)Cc2cnn(-c3cccc(OC)c3)c2)n1`, -11.2%.
The value for `CC(C)NC(=O)N[C@H]1C[C@@H](c2nc(-c3ccc(F)cc3)no2)N(C)C1` was -4.13%; that for `Cc1ccccc1NC(=O)N1CC[C@@H]2CN(C)S(=O)(=O)[C@@H]2CC1` was -8.26%; that for `Cn1ccc(C(=O)NCc2cccc(Cn3ccnc3)c2)cc1=O` was -4.36%.
Regarding `Cc1cc(C(O)CCNC(=O)c2ccc(Cl)s2)c(C)o1` (stereo not drawn), the cytotoxicity at 70.5 h was -8.23%.
The value for `Cc1cn2c(n1)CCC(NC(=O)c1cc(Br)cn1C)C2` (stereo not drawn) was 1.7%; that for `CC(=O)N1CCN(Cc2ccc(Cl)c(F)c2)CC(O)C1` (stereo not drawn) was 17.8%.
